Several values for one entry are separate records, joined by “and”; a condition that tells them apart may be missing. Identical values can stand only once. Entries after “also recorded” stand apart in the source; their conditions may differ. Like-named read-outs stand apart in the source and are kept apart here.
Legend:
patients with mild OSA = conditions: 15 patients with mild OSA; cited from earlier work
patients with OSA = conditions: drug taken alone, cited from earlier work
OSA patients [1] = conditions: for NREM (atomoxetine) and REM (oxybutynin) specific AHI / effect on ventilation during sleep / oxygen saturation / oxygen levels compared to placebo: each drug administered alone; for OSA severity (apnea hypopnea index, AHI): nine moderate-to-severe OSA patients, REM and NREM sleep
Text: In a preliminary investigation, nine patients equipped with a pneumotachograph attached to an oronasal mask to measure ventilation and an esophageal catheter to estimate the arousal threshold, performed a sleep study on each of these 4 conditions: placebo, atomoxetine alone, oxybutynin alone and ato-oxy.

[2] = system: OSA patients; normal controls; conditions: cited from earlier work
[3] = in vivo; cited from earlier work
OSA patients [4] = test: Atomoxetine plus pimavanserin sleep study in 5 OSA patients (Example 4); assay type: in vivo, human; conditions: inferred from combination effect and atomoxetine-alone reduction
Protocol: We administered the recently-approved selective 5-HT2A inverse agonist pimavanserin 34 mg to block the EEG arousal response to CO2 in association with atomoxetine 80 mg and measured the effect of this combination on OSA severity, arousal threshold and collapsibility in 5 patients. These doses were chosen as they are the usual effective doses for attention-deficit disorder and delusion-hallucinations in patients with Parkinson's disease, respectively, based on prescribing information. Patients were also instrumented with an oronasal mask, and in 4/5 patients, esophageal catheter and genioglossus intramuscular electrodes. […] The effect on the arousal threshold is noteworthy, because pimavenserin was administered together with atomoxetine, a wake-promoting drug that, as described above, caused a reduction in arousal threshold by ˜18% compared to placebo in OSA patients in a previous trial. This means that pimavanserin could actually increase the respiratory arousal threshold by ˜50%.

OSA patients [5] = conditions: cited from earlier work
OSA subjects = test: Tiagabine in 14 OSA subjects; assay type: in vivo, human
Text: As described herein, drugs that increase sleep depth (and slow wave sleep (SWS) in particular) such as tiagabine or gabapentin could help the resolution of OSA. […] The pharmacological increase in slow wave sleep (SWS) could be an ideal mechanism for raising the arousal threshold to treat OSA, particularly since SWS seems to be a “protective state” against OSA. […] The reason for improvement likely relates to changes in the non-anatomical factors that contribute to OSA during SWS such as reduced arousability, thereby enabling a higher activation of upper airway dilator muscles. […] Thus, as described herein, drugs such as gabapentin that cause 20-60% increase of SWS^20,21, are ideal candidates for the treatment of OSA in association with atomoxetine.

OSA patients [6] = conditions: cited from earlier work; remark: listed apart in the source
[7] = system: subjects with and without OSA; conditions: cited from earlier work
OSA patients [8] = conditions: zopiclone 7.5 mg, 1 night, n=12; cited from earlier work
OSA patients [9] = conditions: zopiclone n=14 vs placebo n=16; 30 days; non-significant; cited from earlier work
[10] = protriptyline 20 mg, 4 weeks, 5 obese men with severe OSA (Brownell)
[11] = seven patients with a low arousal threshold (Eckert)
[12] = zopiclone 7.5 mg, 21 healthy individuals and OSA patients

CNCC[C@@H](Oc1ccccc1C)c1ccccc1 [atomoxetine]
AHI (patients with mild OSA): did not improve
daytime sleepiness (patients with mild OSA): significantly improve
success in reducing OSA severity / the AHI (patients with OSA): modest success; also recorded: without success
share of the improvement in ventilation during sleep accounted for (OSA patients [1]; analysis of ventilatory parameters during all night): at least 70%
NREM (atomoxetine) and REM (oxybutynin) specific AHI (OSA patients [1]): did not respectively improve
effect on ventilation during sleep (OSA patients [1]): responsible for most of the ventilatory improvement
oxygen saturation / oxygen levels compared to placebo (OSA patients [1]): improved oxygen saturation
reduction in arousal threshold vs placebo (OSA patients [1]; nine OSA patients, atomoxetine p=0.03, combination p>0.7): 18%
OSA severity (apnea hypopnea index, AHI) (OSA patients [1]): did not improve OSA severity
OSA severity (apnea hypopnea index, AHI) (OSA patients [1]; listed as Atomoxetine): did not systematically reduce OSA severity

CNCCCN1c2ccccc2CCc2ccccc21 [desipramine]
airway collapsibility compared to placebo ([2]; 1 night, 14 OSA patients): less collapsible airway
effect on OSA severity as a group ([2]; 1 night, 14 patients): not significant
genioglossus activity during sleep ([2]; normal controls): increased genioglossus activity
upper airway collapsibility during sleep ([2]; normal controls): reduced upper airway collapsibility
success in reducing OSA severity / the AHI (patients with OSA): modest success; also recorded: without success

NCC1(CC(=O)O)CCCCC1 [gabapentin]
increase of SWS (slow wave sleep) [3]: 20-60%

CCN(CC)CC#CCOC(=O)C(O)(c1ccccc1)C1CCCCC1 (stereo not drawn) [oxybutynin]
NREM (atomoxetine) and REM (oxybutynin) specific AHI (OSA patients [1]): did not respectively improve
effect on ventilation during sleep (OSA patients [1]): minor effect on ventilation
oxygen saturation / oxygen levels compared to placebo (OSA patients [1]): did not improve oxygen levels
OSA severity (apnea hypopnea index, AHI) (OSA patients [1]): did not systematically reduce OSA severity

CC(C)COc1ccc(CNC(=O)N(Cc2ccc(F)cc2)C2CCN(C)CC2)cc1 [pimavanserin]
increase of respiratory arousal threshold ascribed to pimavanserin (OSA patients [4]): ~50%

CNCCCC1c2ccccc2C=Cc2ccccc21 [protriptyline]
success in reducing OSA severity / the AHI (patients with OSA; listed as Protriptyline): without success
success in reducing OSA severity / the AHI (patients with OSA): modest success
reduction in AHI from baseline (OSA patients [5]; open label 4-week crossover trial, 9 patients (Hanzel)): 42%
AHI during NREM sleep (OSA patients [5]; [10]): no change
oxygen saturation and daytime sleepiness (OSA patients [5]; [10]): improvements
NREM AHI as a group (OSA patients [5]; protriptyline 20 mg, 14 days, 10 moderate-to-severe OSA patients (Whyte)): did not change

Cc1ccsc1C(=CCCN1CCC[C@@H](C(=O)O)C1)c1sccc1C [tiagabine]
AHI or oxygen saturation during sleep (OSA subjects): without worsening
increase in EEG slow wave activity (OSA subjects): 16%

O=c1n(CCCN2CCN(c3cccc(Cl)c3)CC2)nc2ccccn12 [trazodone]
AHI compared to placebo (OSA patients [6]; [11]): did not affect
improvement of arousal threshold (OSA patients [6]; [11]): 30%
arousal threshold in response to hypercapnia (OSA patients [6]; trazodone 100 mg before bedtime, eight OSA patients (Heinzer)): increased
reduction of AHI (OSA patients [6]; trazodone 100 mg, 15 unselected OSA patients (Smales)): 26%

Cc1ccc(-c2nc3ccc(C)cn3c2CC(=O)N(C)C)cc1 [zolpidem]
increase in arousal threshold compared to placebo ([7]; 21 subjects with and without OSA, zolpidem 10 mg): ~30% and 25%
increase in median genioglossus muscle responsiveness compared to placebo ([7]; 21 subjects, p=0.03): 3 fold
genioglossus response to pharyngeal negative pressure compared to placebo ([7]; zolpidem 10 mg, 21 individuals): increased

CN1CCN(C(=O)OC2c3nccnc3C(=O)N2c2ccc(Cl)cn2)CC1 (stereo not drawn) [zopiclone]
AHI vs placebo [7, 12]: did not change
arousal threshold vs placebo [7, 12]: significantly increased
AHI compared to placebo (OSA patients [8]): did not significantly change
increase in arousal threshold (OSA patients [8]): 20%
change in AHI from baseline (OSA patients [9]): −25%
change in AHI from placebo (OSA patients [9]): −15%

Source: patent US12558327B2, “Methods and compositions for treating sleep apnea” (The Brigham and Women's Hospital, Inc., priority 2019, dated 2026)
